In the supplement of paper PMC10307832:

Each cell line was assayed with NC(=O)c1ccc(N(C(N)=O)c2c(F)cccc2F)nc1-c1ccc(F)cc1F [VX-702] + CC(=O)Nc1cccc(-n2c(=O)n(C3CC3)c(=O)c3c(Nc4ccc(I)cc4F)n(C)c(=O)c(C)c32)c1 [Trametinib] (partner 0.02 µM) (assay: relative viability (nuclei count vs DMSO), 5 days (fraction); higher = more cells survive). Details: first compound 2 µM.
Procedure, shortened: (§1)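 The day after seeding in 1536-well plates, lung cancer cell lines were treated by pin tool with a single drug, or with a fixed anchor-drug dose together with five library-drug doses (not always all listed) in √10 steps. After 5 days, a combined fix-and-stain solution (final 0.05% Triton X-100, 1% formaldehyde, 1 ug/ml Hoechst) was added. Nuclei counted on 4× images gave relative viability as treated counts over vehicle counts, reported as the median of duplicate plates.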

Cell Line | relative viability
NCI-H647 | 0.678
LOU-NH91 | 0.743
HCC-78 | 0.801
HCC-44 | 1.1
NCI-H1651 | 0.884
NCI-H1755 | 0.869
HOP-62 | 0.45
PC-14 | 0.925
NCI-H1650 | 0.501
ChaGo-K-1 | 0.844
A-427 | 0.724
NCI-H1355 | 0.416
NCI-H1648 | 0.435
NCI-H2342 | 0.835
HCC-366 | 0.266

These cell lines were tested with NC(=O)c1ccc(N(C(N)=O)c2c(F)cccc2F)nc1-c1ccc(F)cc1F [VX-702] + CCNC(=O)c1noc(-c2cc(C(C)C)c(O)cc2O)c1-c1ccc(CN2CCOCC2)cc1 [Luminespib] (partner 0.01 µM) in the same assay as above. Details: first compound 0.02 µM.
Procedure, shortened: as §1

Cell Line | relative viability
ABC-1 | 0.518
CAL-12T | 0.565
NCI-H1944 | 0.73
NCI-H2085 | 0.479
NCI-H2228 | 0.101
NCI-H441 | 0.368
NCI-H522 | 0.868
EMC-BAC-2 | 1.13
NCI-H2170 | 0.413
UMC-11 | 0.993
NCI-H650 | 0.661
LCLC-103H | 0.975
NCI-H596 | 1.05
HCC-827 | 0.449
COR-L 105 | 0.688
NCI-H2126 | 0.879
NCI-H647 | 0.216
LOU-NH91 | 0.355
HCC-44 | 0.84
NCI-H1651 | 0.979
NCI-H1755 | 0.432
HOP-62 | 0.926
PC-14 | 0.138
NCI-H1650 | 0.19
ChaGo-K-1 | 0.657
A-427 | 0.715
NCI-H1355 | 0.72
NCI-H2342 | 0.66
NCI-H1563 | 0.528
NCI-H1623 | 0.469

Same assay, conditions: first compound 0.2 µM

Cell Line | relative viability
ABC-1 | 0.48
CAL-12T | 0.574
NCI-H1944 | 0.713
NCI-H2085 | 0.462
NCI-H2228 | 0.144
NCI-H441 | 0.326
NCI-H522 | 1.11
EMC-BAC-2 | 1.13
NCI-H2170 | 0.638
UMC-11 | 0.865
LCLC-103H | 0.888
NCI-H596 | 1.1
HCC-827 | 0.638
COR-L 105 | 0.715
NCI-H2126 | 0.918
NCI-H647 | 0.478
LOU-NH91 | 0.3
HCC-44 | 0.983
NCI-H1651 | 0.891
NCI-H1755 | 0.498
HOP-62 | 0.899
PC-14 | 0.171
NCI-H1650 | 0.193
ChaGo-K-1 | 0.46
A-427 | 0.919
NCI-H1355 | 0.632
NCI-H2342 | 0.848
NCI-H1563 | 0.506
NCI-H1623 | 0.496

Same assay, conditions: first compound 0.6325 µM

Cell Line | relative viability
ABC-1 | 0.567
CAL-12T | 0.318
NCI-H1944 | 0.771
NCI-H2085 | 0.477
NCI-H2228 | 0.145
NCI-H441 | 0.271
NCI-H522 | 1.26
EMC-BAC-2 | 1.13
NCI-H2170 | 0.52
UMC-11 | 0.805
NCI-H650 | 0.78
LCLC-103H | 1
NCI-H596 | 1.01
HCC-827 | 0.504
COR-L 105 | 0.78
NCI-H2126 | 0.834
NCI-H647 | 0.143
LOU-NH91 | 0.346
HCC-44 | 0.909
NCI-H1651 | 0.921
NCI-H1755 | 0.315
HOP-62 | 0.916
PC-14 | 0.158
NCI-H1650 | 0.216
ChaGo-K-1 | 0.586
A-427 | 0.823
NCI-H1355 | 0.729
NCI-H2342 | 0.72
NCI-H1563 | 0.509
NCI-H1623 | 0.477

Same assay, conditions: first compound 2 µM

Cell Line | relative viability
ABC-1 | 0.894
CAL-12T | 0.363
NCI-H1944 | 0.718
NCI-H2085 | 0.41
NCI-H2228 | 0.124
NCI-H441 | 0.411
NCI-H522 | 1.2
EMC-BAC-2 | 1.23
NCI-H2170 | 0.804
UMC-11 | 1.11
NCI-H650 | 0.961
LCLC-103H | 0.986
NCI-H596 | 1.11
HCC-827 | 0.273
COR-L 105 | 0.91
NCI-H2126 | 0.918
NCI-H647 | 0.17
LOU-NH91 | 0.292
HCC-44 | 1.48
NCI-H1651 | 1.08
NCI-H1755 | 0.476
HOP-62 | 0.962
PC-14 | 0.175
NCI-H1650 | 0.226
ChaGo-K-1 | 0.678
A-427 | 0.774
NCI-H1355 | 0.76
NCI-H2342 | 0.821
NCI-H1563 | 0.479
NCI-H1623 | 0.465

These cell lines were tested with NC(=O)c1ccc(N(C(N)=O)c2c(F)cccc2F)nc1-c1ccc(F)cc1F [VX-702] + C[C@]1(O)C[C@@H](c2nc(-c3ccc4ccc(-c5ccccc5)nc4c3)c3c(N)nccn32)C1 [Linsitinib] (partner 1 µM) in the same assay as above. Details: first compound 0.02 µM.
Procedure, shortened: as §1

Cell Line | relative viability
ABC-1 | 0.661
CAL-12T | 0.815
NCI-H1944 | 1.07
NCI-H2085 | 0.911
IA-LM | 0.585
NCI-H2228 | 0.724
NCI-H441 | 0.699
EMC-BAC-2 | 0.83
NCI-H1703 | 0.531
UMC-11 | 0.949
NCI-H650 | 0.927
LCLC-103H | 1.23
NCI-H596 | 0.996
HCC-827 | 0.931
COR-L 105 | 0.965
NCI-H1299 | 1.17

Cell Line | relative viability
NCI-H2126 | 0.726
A549 | 0.502
NCI-H647 | 1.21
LOU-NH91 | 1.01
HCC-78 | 0.448
HCC-44 | 0.618
NCI-H1651 | 0.876
NCI-H1755 | 1.02
HOP-62 | 0.918
PC-14 | 0.965
A-427 | 1.1
NCI-H1355 | 0.76
NCI-H1563 | 1.23
HCC-366 | 0.592
EBC-1 | 1.07

Same assay, conditions: first compound 0.2 µM

Cell Line | relative viability
CAL-12T | 0.898
NCI-H1944 | 1.06
NCI-H2085 | 0.882
IA-LM | 0.723
NCI-H2228 | 0.671
NCI-H441 | 0.429
EMC-BAC-2 | 0.796
NCI-H1703 | 0.717
UMC-11 | 0.985
LCLC-103H | 0.954
NCI-H596 | 1.1
HCC-827 | 0.927
COR-L 105 | 0.916
NCI-H1299 | 0.999
NCI-H2126 | 0.697
A549 | 0.579
NCI-H647 | 0.941
LOU-NH91 | 0.926
HCC-78 | 0.508
HCC-44 | 0.671
NCI-H1651 | 1.09
NCI-H1755 | 0.967
HOP-62 | 0.851
PC-14 | 0.943
A-427 | 1.05
NCI-H1355 | 0.802
Calu-6 | 0.967
NCI-H1563 | 1.15
HCC-366 | 0.375
EBC-1 | 0.935

Same assay, conditions: first compound 0.6325 µM

Cell Line | relative viability
ABC-1 | 0.925
CAL-12T | 0.722
NCI-H1944 | 1.31
NCI-H2085 | 0.903
IA-LM | 0.606
NCI-H2228 | 0.685
NCI-H441 | 0.369
EMC-BAC-2 | 0.816
NCI-H1703 | 0.937
UMC-11 | 0.851
NCI-H650 | 1.07
LCLC-103H | 1.12
NCI-H596 | 1.02
HCC-827 | 0.953
COR-L 105 | 0.956
NCI-H1299 | 1.06

Cell Line | relative viability
NCI-H2126 | 0.67
A549 | 0.57
NCI-H647 | 1.18
LOU-NH91 | 0.933
HCC-78 | 0.427
HCC-44 | 0.617
NCI-H1651 | 0.967
NCI-H1755 | 1.01
HOP-62 | 1.04
PC-14 | 1.04
A-427 | 1.17
NCI-H1355 | 0.749
Calu-6 | 1.09
NCI-H1563 | 1.18
HCC-366 | 0.615
EBC-1 | 0.914

Same assay, conditions: first compound 2 µM

Cell Line | relative viability
ABC-1 | 1.16
CAL-12T | 0.881
NCI-H1944 | 0.903
NCI-H2085 | 1.02
IA-LM | 0.557
NCI-H2228 | 0.761
NCI-H441 | 0.747
EMC-BAC-2 | 0.892
NCI-H1703 | 1.26
UMC-11 | 1.08
NCI-H650 | 1.12
LCLC-103H | 1
NCI-H596 | 1.1
HCC-827 | 0.71
COR-L 105 | 1.4
NCI-H1299 | 1.09

Cell Line | relative viability
NCI-H2126 | 0.634
A549 | 0.563
NCI-H647 | 1.4
LOU-NH91 | 0.687
HCC-78 | 0.492
HCC-44 | 0.65
NCI-H1651 | 1
NCI-H1755 | 0.725
HOP-62 | 1.05
PC-14 | 1.04
A-427 | 1.17
NCI-H1355 | 0.866
Calu-6 | 1.02
NCI-H1563 | 1.14
HCC-366 | 0.47
EBC-1 | 0.993
